This is an account of results in publication PMC7026418, “The kinase polypharmacology landscape of clinical PARP inhibitors” (Scientific Reports, 2020).

The structures appear in SMILES notation. Where two headings read alike, the source gives them in different places.

Some targets named below: PIK3CA(M1043I) (Homo sapiens, UniProt P42336, M1043I); CSNK1A1 (Homo sapiens, UniProt P48729); CLK4 (Homo sapiens, UniProt Q9HAZ1); PIK3CA(E542K) (Homo sapiens, UniProt P42336, E542K); MKNK1 (Homo sapiens, UniProt Q9BUB5); MAP4K4 (Homo sapiens, UniProt O95819).
Test in all cases: biochemical
What all share (design): DiscoveRx KINOMEscan active site-directed competition binding; percent of control kinase bound to immobilised ligand

In another test the target is T1, ASK1 (Homo sapiens, UniProt Q99683).
T1 construct: gene MAP3K5
T1 sequence (Q99683 1-1374): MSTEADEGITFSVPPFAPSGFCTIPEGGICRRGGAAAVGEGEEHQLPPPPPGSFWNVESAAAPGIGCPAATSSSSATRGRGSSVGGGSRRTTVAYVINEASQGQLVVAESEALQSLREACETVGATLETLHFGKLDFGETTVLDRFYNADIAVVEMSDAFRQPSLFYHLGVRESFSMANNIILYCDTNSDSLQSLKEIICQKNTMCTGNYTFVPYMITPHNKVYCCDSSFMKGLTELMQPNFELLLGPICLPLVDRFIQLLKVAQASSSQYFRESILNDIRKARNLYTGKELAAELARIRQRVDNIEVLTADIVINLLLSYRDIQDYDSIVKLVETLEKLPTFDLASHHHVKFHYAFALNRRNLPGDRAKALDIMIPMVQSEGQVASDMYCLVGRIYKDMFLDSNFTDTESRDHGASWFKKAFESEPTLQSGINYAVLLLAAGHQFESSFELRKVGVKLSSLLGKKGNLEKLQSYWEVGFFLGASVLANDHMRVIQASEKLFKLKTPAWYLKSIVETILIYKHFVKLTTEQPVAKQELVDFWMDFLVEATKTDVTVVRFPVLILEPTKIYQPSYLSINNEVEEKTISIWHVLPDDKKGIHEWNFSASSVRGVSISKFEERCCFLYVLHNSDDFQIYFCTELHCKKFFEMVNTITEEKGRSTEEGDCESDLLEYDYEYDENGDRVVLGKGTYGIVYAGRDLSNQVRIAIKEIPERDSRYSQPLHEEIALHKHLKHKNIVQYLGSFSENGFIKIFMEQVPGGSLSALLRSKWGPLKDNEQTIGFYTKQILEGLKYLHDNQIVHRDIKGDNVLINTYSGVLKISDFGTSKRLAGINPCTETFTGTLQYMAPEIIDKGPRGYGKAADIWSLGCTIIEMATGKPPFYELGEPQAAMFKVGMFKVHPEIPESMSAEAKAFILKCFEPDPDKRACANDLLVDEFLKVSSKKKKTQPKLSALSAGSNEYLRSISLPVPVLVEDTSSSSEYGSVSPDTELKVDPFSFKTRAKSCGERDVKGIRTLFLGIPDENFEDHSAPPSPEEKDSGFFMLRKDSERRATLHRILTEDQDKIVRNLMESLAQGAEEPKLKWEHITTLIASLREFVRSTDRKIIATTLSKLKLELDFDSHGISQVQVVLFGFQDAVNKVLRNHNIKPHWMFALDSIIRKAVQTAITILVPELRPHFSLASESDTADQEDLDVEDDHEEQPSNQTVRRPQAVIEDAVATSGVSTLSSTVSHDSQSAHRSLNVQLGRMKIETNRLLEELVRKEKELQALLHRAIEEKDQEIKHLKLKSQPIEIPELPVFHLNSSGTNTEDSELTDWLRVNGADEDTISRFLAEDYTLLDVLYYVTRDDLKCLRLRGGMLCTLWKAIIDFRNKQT

The target of a further test is T2, YANK3 (Homo sapiens, UniProt Q86UX6).
T2 construct: gene STK32C

The target of test [1] is T3, RSK2(Kin.Dom.2-C-terminal) (Homo sapiens, UniProt P51812).
T3 construct: gene RPS6KA3; Kin.Dom.2-C-terminal

Where [2] appears, read: read-out: Niraparib (MK-4827) / %Ctrl @ 10000nM.
[3] abbreviates: read-out: Olaparib / %Ctrl @ 10000nM.
[4] abbreviates: read-out: Rucaparib / %Ctrl @ 10000nM, binding competition, % of control.
Where [5] appears, read: read-out: Talazoparib (BMN 673) / %Ctrl @ 10000nM.

CLK4, sequence (Q9HAZ1 whole entry): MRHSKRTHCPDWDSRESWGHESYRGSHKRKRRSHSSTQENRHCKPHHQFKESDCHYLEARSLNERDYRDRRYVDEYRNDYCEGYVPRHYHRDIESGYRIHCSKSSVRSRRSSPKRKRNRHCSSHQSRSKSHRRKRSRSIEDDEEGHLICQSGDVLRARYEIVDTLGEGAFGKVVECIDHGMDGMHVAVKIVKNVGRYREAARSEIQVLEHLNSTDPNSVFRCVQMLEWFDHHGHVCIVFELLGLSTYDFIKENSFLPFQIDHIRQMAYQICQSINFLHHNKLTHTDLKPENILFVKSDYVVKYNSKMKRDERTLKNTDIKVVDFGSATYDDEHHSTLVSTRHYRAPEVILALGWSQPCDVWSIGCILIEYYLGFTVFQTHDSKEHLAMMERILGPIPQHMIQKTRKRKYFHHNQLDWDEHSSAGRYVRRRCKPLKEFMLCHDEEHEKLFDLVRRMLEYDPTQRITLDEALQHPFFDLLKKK
PIK3CA(E542K), sequence (P42336 whole entry E542K): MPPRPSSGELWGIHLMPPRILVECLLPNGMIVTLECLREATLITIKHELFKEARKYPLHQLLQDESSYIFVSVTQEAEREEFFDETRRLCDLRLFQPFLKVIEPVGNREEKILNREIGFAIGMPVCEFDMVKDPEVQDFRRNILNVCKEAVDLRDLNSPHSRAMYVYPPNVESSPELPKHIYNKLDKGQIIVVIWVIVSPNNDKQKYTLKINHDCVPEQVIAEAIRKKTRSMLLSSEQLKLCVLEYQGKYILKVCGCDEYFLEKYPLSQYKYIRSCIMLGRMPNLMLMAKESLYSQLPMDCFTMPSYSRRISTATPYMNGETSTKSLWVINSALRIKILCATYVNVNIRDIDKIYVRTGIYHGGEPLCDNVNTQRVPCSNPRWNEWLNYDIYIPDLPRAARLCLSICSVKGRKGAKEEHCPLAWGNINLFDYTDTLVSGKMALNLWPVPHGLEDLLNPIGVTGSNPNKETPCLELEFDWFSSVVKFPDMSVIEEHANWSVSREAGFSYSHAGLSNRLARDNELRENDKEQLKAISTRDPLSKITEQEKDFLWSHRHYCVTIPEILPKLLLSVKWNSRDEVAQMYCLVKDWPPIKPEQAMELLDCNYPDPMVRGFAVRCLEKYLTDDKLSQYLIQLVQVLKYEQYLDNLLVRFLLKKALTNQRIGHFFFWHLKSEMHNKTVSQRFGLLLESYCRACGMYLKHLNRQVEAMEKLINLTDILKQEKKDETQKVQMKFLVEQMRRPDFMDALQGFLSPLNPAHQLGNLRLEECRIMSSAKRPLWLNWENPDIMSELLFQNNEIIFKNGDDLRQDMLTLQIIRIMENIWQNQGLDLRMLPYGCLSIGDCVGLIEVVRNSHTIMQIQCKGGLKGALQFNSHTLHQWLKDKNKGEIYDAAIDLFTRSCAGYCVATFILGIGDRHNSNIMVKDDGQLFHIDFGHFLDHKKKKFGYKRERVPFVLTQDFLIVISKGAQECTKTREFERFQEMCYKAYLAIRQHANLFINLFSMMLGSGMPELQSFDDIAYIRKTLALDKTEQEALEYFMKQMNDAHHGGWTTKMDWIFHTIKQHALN
T2 sequence (Q86UX6 whole entry): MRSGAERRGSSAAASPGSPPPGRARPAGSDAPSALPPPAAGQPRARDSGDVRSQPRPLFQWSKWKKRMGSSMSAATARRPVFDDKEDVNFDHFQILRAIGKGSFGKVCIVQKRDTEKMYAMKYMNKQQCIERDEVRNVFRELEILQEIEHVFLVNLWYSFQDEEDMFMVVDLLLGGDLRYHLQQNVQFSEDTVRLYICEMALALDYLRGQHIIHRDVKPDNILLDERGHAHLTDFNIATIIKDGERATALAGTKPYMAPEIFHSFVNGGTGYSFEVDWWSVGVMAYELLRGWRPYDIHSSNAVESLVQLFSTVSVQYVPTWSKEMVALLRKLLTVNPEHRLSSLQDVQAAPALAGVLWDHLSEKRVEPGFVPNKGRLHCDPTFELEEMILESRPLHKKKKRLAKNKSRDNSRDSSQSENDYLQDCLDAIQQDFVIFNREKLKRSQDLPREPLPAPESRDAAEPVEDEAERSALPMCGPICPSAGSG
MAP4K4, sequence (O95819 whole entry): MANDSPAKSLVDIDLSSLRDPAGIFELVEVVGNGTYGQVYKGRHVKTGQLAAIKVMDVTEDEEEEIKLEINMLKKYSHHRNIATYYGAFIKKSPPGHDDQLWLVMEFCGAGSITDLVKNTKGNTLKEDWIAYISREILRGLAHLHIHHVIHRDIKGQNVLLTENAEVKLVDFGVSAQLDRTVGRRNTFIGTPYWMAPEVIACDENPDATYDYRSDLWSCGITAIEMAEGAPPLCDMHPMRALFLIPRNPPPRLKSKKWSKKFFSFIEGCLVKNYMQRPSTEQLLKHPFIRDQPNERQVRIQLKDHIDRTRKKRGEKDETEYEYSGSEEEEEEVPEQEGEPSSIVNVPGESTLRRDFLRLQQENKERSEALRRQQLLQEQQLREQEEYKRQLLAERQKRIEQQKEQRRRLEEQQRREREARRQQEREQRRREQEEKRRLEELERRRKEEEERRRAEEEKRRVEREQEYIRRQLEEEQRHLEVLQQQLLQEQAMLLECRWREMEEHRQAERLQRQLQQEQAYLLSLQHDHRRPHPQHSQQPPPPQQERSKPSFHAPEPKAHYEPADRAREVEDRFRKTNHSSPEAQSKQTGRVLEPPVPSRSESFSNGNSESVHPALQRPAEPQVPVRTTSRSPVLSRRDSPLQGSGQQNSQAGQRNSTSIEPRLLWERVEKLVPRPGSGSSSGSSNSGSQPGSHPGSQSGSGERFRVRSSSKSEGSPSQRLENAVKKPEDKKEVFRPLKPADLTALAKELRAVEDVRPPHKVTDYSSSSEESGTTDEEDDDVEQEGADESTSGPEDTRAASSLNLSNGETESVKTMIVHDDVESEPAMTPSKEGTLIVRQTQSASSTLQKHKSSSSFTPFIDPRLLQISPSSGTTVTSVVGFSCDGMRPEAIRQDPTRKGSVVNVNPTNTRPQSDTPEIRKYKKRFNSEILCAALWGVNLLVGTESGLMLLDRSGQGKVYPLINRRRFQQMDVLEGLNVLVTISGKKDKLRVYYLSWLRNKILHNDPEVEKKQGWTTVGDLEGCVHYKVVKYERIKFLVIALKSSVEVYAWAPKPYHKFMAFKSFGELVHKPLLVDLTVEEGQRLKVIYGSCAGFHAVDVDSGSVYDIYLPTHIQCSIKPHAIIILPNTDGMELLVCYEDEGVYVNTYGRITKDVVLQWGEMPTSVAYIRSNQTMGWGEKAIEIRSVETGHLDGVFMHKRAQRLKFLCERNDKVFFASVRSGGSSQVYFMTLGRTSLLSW
PIK3CA(M1043I), sequence (P42336 whole entry M1043I): as the sequence (P42336 whole entry E542K) above, with K542E, M1043I counted along it
CSNK1A1, sequence (P48729 whole entry): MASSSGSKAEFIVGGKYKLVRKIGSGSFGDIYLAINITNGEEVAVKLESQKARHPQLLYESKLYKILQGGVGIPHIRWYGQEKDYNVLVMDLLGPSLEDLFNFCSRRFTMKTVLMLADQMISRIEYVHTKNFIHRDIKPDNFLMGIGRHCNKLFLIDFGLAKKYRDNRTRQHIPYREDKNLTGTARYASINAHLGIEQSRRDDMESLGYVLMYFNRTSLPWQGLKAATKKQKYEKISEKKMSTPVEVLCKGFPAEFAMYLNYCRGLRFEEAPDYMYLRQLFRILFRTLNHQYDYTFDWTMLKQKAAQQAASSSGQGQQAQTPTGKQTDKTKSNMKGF
MKNK1, sequence (Q9BUB5 whole entry): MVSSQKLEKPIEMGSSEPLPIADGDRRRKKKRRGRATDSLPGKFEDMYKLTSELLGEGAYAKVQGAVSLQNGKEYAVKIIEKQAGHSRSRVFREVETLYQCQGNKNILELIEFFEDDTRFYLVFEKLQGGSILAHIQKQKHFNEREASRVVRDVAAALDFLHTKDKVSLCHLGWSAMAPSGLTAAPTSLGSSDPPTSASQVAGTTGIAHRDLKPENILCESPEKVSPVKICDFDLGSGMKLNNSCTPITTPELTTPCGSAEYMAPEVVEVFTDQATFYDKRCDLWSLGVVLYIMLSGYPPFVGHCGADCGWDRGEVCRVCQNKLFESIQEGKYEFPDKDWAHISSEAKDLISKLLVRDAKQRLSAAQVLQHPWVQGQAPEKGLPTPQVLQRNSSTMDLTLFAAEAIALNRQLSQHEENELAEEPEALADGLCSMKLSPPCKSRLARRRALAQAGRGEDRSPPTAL
T3 sequence (P51812 whole entry): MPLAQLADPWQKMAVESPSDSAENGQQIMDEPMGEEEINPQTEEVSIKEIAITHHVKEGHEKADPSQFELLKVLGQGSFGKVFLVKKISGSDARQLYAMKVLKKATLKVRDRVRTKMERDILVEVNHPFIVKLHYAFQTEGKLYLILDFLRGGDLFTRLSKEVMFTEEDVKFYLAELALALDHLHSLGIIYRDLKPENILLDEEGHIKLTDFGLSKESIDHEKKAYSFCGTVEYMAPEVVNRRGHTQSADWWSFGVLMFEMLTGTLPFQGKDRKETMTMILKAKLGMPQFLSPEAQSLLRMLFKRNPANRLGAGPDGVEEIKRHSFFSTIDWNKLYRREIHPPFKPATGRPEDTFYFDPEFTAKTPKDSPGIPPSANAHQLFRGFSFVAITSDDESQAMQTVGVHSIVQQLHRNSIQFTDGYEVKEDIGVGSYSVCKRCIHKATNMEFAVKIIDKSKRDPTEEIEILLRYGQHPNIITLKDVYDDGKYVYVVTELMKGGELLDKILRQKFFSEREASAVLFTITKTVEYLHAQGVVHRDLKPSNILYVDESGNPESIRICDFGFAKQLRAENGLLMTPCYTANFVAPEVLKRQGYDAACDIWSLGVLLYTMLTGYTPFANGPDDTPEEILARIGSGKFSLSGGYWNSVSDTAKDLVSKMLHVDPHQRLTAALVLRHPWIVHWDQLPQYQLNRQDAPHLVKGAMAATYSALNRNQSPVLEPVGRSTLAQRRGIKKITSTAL

As to `NC(=O)c1cccc2cn(-c3ccc([C@@H]4CCCNC4)cc3)nc12` [Niraparib], the percent of control binding at 10 µM was 90% at PIK3CA(M1043I) (setting [2]); 90% on ASK1 (setting [2]); 34% on CSNK1A1 (setting [2]); 86% at YANK3 (setting [2]); 52% at CLK4 (setting [2]); 100% at PIK3CA(E542K) (setting [2]). The percent of control binding at 10 µM was 100% at MKNK1 (setting [2]), 100% in test [1] (setting [2]) and 94% on MAP4K4 (setting [2]).
For the molecule `O=C(c1cc(Cc2n[nH]c(=O)c3ccccc23)ccc1F)N1CCN(C(=O)C2CC2)CC1` [Olaparib], the percent of control binding at 10 µM on PIK3CA(M1043I) (setting [3]) is 91%; at ASK1 (setting [3]) it was 94%; at CSNK1A1 (setting [3]), 81%; on YANK3 (setting [3]), 83%; at CLK4 (setting [3]), 92%; at PIK3CA(E542K) (setting [3]) it was 94%. For the same molecule, the percent of control binding at 10 µM on MKNK1 (setting [3]) turned out to be 82%; in [1] (setting [3]), 72%; at MAP4K4 (setting [3]) it was 100%.
In the case of `CNCc1ccc(-c2[nH]c3cc(F)cc4c3c2CCNC4=O)cc1` [Rucaparib], the percent of control binding at 10 µM at PIK3CA(M1043I) (setting [4]) was 77%; on ASK1 (setting [4]) it was 92%; on CSNK1A1 (setting [4]), 39%; on YANK3 (setting [4]), 72%; at CLK4 (setting [4]) it was 40%; on PIK3CA(E542K) (setting [4]), 82%. Moreover, the percent of control binding at 10 µM at MKNK1 (setting [4]) came to 97%; in test [1] (setting [4]) it was 64%; at MAP4K4 (setting [4]) it was 82%.
Turning to `Cn1ncnc1[C@H]1c2n[nH]c(=O)c3cc(F)cc(c23)N[C@@H]1c1ccc(F)cc1` [Talazoparib], the percent of control binding at 10 µM on PIK3CA(M1043I) (setting [5]) was determined as 94%; at ASK1 (setting [5]) it was 93%; at CSNK1A1 (setting [5]), 73%; at YANK3 (setting [5]) it was 85%; at CLK4 (setting [5]) it was 100%; at PIK3CA(E542K) (setting [5]), 100%. In addition, the percent of control binding at 10 µM (at MKNK1 (setting [5]); in test [1] (setting [5]); on MAP4K4 (setting [5])) was 100% in each case.
